Measurements reported in ChEMBL document CHEMBL1137760, “Synthesis and activity of tryptophan sulfonamide derivatives as novel non-hydroxamate TNF-alpha converting enzyme (TACE) inhibitors” (Bioorg Med Chem, 2009).

What was measured:
[1] = molecular target: Disintegrin and metalloproteinase domain-containing protein 17 (Homo sapiens, UniProt P78536); test: Inhibition of TACE by FRET assay
[2] = molecular target: 72 kDa type IV collagenase (Homo sapiens, UniProt P08253); test: Inhibition of MMP2 by […] assay
Sequence of 72 kDa type IV collagenase (P08253 whole entry): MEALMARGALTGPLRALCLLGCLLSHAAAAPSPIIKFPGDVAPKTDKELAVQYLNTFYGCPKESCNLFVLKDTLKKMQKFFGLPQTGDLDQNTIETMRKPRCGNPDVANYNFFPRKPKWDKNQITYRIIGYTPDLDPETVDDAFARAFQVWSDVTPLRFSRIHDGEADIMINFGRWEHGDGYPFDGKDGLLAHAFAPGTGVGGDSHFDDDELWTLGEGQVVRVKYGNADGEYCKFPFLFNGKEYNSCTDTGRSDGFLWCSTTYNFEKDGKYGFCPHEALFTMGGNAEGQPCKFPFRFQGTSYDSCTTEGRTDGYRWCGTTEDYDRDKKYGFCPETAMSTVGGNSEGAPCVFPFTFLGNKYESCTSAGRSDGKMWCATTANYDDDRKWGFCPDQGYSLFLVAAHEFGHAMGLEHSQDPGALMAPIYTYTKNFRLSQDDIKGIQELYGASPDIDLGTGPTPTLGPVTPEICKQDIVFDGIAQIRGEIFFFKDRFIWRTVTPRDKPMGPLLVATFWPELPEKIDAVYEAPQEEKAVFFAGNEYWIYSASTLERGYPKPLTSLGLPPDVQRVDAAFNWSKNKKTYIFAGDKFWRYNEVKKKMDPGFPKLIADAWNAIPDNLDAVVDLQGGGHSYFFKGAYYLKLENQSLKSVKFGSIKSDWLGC

[3] = molecular target: Collagenase 3 (Homo sapiens, UniProt P45452); test: Inhibition of MMP13 by […] assay
[4] = molecular target: Matrix metalloproteinase-14 (Homo sapiens, UniProt P50281); test: Inhibition of MMP14 by […] assay
[5] = molecular target: Disintegrin and metalloproteinase domain-containing protein 17 (Mus musculus, UniProt Q9Z0F8); test: Inhibition of TACE in mouse Raw264.7 cells assessed as inhibition of LPS-induced TNFalpha production treated 1 hr before LPS challenge measured 4 hrs post LPS challenge; format: cell-based
Sequence of Disintegrin and metalloproteinase domain-containing protein 17 (Mus musculus, UniProt Q9Z0F8) (Q9Z0F8 whole entry, the tested form may be a part): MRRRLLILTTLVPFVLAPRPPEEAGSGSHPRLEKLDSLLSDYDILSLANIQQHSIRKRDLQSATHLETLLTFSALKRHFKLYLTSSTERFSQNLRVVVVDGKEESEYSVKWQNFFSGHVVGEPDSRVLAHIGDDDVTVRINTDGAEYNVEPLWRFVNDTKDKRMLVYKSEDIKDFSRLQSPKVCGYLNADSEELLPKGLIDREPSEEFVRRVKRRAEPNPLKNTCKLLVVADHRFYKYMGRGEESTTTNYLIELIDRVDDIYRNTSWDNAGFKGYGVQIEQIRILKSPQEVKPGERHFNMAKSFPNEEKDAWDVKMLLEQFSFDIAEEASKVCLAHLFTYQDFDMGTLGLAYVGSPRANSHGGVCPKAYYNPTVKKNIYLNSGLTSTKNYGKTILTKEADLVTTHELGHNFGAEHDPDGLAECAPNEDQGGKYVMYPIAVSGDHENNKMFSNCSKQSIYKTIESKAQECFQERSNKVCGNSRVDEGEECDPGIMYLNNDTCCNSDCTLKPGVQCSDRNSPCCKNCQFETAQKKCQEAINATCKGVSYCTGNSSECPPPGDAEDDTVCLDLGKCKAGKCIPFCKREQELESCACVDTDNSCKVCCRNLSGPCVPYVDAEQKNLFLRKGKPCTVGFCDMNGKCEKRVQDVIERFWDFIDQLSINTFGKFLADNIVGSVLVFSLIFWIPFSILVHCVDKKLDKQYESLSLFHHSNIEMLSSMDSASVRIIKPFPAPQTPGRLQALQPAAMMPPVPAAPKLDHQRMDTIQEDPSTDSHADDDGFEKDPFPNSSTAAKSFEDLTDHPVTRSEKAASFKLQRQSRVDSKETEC

[6] = molecular target: T1, Interstitial collagenase (Homo sapiens, UniProt P03956); test: Inhibition of MMP1 by FRET assay
T1 sequence (P03956 whole entry): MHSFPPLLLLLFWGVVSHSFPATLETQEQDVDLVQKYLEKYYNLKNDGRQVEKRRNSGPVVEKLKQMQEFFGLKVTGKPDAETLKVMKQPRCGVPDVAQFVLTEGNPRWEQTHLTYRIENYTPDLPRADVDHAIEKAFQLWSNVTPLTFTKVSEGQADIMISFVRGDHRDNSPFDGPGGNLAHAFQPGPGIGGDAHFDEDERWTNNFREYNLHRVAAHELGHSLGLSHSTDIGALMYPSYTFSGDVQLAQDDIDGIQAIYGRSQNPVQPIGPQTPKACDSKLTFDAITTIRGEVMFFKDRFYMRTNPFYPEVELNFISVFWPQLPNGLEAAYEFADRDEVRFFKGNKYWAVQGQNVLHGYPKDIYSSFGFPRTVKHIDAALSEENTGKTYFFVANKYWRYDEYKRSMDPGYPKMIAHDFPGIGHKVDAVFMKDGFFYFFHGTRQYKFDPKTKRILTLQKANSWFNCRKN

Sequence of Disintegrin and metalloproteinase domain-containing protein 17 (Homo sapiens, UniProt P78536) (P78536 whole entry, the tested form may be a part): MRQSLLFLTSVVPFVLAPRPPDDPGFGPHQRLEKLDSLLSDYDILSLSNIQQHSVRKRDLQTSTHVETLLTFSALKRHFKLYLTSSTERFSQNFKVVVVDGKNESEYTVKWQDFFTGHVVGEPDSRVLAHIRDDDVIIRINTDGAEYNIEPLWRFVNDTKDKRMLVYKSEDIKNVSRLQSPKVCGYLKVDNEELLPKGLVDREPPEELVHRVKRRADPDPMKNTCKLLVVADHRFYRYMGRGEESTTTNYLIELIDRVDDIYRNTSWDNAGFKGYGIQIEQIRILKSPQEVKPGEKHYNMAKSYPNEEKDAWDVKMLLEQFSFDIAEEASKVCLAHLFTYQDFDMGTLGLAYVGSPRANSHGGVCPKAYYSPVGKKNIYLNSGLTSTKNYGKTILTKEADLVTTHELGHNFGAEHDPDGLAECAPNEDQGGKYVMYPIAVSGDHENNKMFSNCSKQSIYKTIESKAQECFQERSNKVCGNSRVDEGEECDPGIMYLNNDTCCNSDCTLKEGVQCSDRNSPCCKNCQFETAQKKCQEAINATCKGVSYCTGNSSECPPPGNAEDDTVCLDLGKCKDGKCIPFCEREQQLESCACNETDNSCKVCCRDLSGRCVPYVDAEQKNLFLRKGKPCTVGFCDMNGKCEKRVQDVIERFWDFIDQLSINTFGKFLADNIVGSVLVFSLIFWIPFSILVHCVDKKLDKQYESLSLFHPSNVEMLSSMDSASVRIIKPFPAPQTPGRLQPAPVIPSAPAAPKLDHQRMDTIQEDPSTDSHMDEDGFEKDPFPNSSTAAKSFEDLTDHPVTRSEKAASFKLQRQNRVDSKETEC

SMILES	IC50 [1]	also measured
CC#CCOc1ccc(S(=O)(=O)NC(Cc2cn(Cc3cccc(OC)c3)c3ccc(OC)cc23)C(=O)O)cc1 (racemic)	2240 nM	
CC#CCOc1ccc(S(=O)(=O)NC(Cc2c(C)n(Cc3ccc(Cl)cc3)c3ccc(Cl)cc23)C(=O)O)cc1 (racemic)	330 nM	
CC#CCOc1ccc(S(=O)(=O)NC(Cc2cn(Cc3ccccc3)c3ccc(C(=O)O)cc23)C(=O)O)cc1 (racemic)	> 100000 nM	
CC#CCOc1ccc(S(=O)(=O)NC(Cc2cn(CC(C)C)c3ccc(OC)cc23)C(=O)O)cc1 (racemic)	1230 nM	
CC#CCOc1ccc(S(=O)(=O)NC(Cc2c(C)n(Cc3ccc(C#N)cc3)c3ccc(OC)cc23)C(=O)O)cc1 (racemic)	470 nM	
CC#CCOc1ccc(S(=O)(=O)NC(Cc2c(C)n(C)c3ccc(OC)cc23)C(=O)O)cc1 (racemic)	900 nM	
CC#CCOc1ccc(S(=O)(=O)NC(Cc2c[nH]c3ccc(OC)cc23)C(=O)O)cc1 (single isomer, unassigned; enantiomer 2)	140 nM	IC50 [2]: 1270 nM; IC50 [3]: 13.6 µM; IC50 [4]: 20.7 µM; IC50 [5]: 57 µM; IC50 [6]: > 50 µM
CC#CCOc1ccc(S(=O)(=O)NC(Cc2c[nH]c3ccc(O)cc23)C(=O)O)cc1 (racemic)	1610 nM	
CC#CCOc1ccc(S(=O)(=O)NC(Cc2c[nH]c3cc(C)ccc23)C(=O)O)cc1 (racemic)	1570 nM	
CC#CCOc1ccc(S(=O)(=O)NC(Cc2c[nH]c3ccc(F)cc23)C(=O)O)cc1 (racemic)	1560 nM	
CC#CCOc1ccc(S(=O)(=O)NC(Cc2c[nH]c3ccc(OCc4ccccc4)cc23)C(=O)O)cc1 (stereo in doubt; 11h)	6980 nM	
CC#CCOc1ccc(S(=O)(=O)N[C@H](Cc2cn(Cc3ccc(OC)cc3)c3ccccc23)C(=O)O)cc1		IC50 [5]: > 100 µM; IC50 [6]: > 50 µM
CC#CCOc1ccc(S(=O)(=O)NC(Cc2cn(Cc3ccc4c(c3)OCO4)c3ccc(OC)cc23)C(=O)O)cc1 (racemic)	1500 nM	
CC#CCOc1ccc(S(=O)(=O)NC(Cc2c[nH]c3cc(F)ccc23)C(=O)O)cc1 (racemic)	2960 nM	
CC#CCOc1ccc(S(=O)(=O)NC(Cc2c(C)n(Cc3cccc(OC)c3)c3ccc(OC)cc23)C(=O)O)cc1 (racemic)	280 nM	
CC#CCOc1ccc(S(=O)(=O)NC(Cc2c[nH]c3ccc(Br)cc23)C(=O)O)cc1 (racemic)	630 nM	
CC#CCOc1ccc(S(=O)(=O)NC(Cc2cn(C)c3ccc(C(=O)O)cc23)C(=O)O)cc1 (racemic)	> 100000 nM	

SMILES	IC50 [1]	also measured
CC#CCOc1ccc(S(=O)(=O)NC(Cc2c(C)n(Cc3cccc(F)c3)c3ccc(OC)cc23)C(=O)O)cc1 (racemic)	340 nM	
CC#CCOc1ccc(S(=O)(=O)NC(Cc2c(C)n(Cc3ccc(F)cc3)c3ccc(OC)cc23)C(=O)O)cc1 (racemic)	320 nM	
CC#CCOc1ccc(S(=O)(=O)NC(Cc2c(C)n(Cc3cccc(C#N)c3)c3ccc(OC)cc23)C(=O)O)cc1 (configuration not stated)	410 nM	
CC#CCOc1ccc(S(=O)(=O)NC(Cc2c(C)n(CC(C)C)c3ccc(Cl)cc23)C(=O)O)cc1 (racemic)	300 nM	
CC#CCOc1ccc(S(=O)(=O)NC(Cc2cn(Cc3ccccc3F)c3ccc(OC)cc23)C(=O)O)cc1 (racemic)	2240 nM	
CC#CCOc1ccc(S(=O)(=O)NC(Cc2cn(CC)c3ccc(C(=O)O)cc23)C(=O)O)cc1 (racemic)	> 100000 nM	
CC#CCOc1ccc(S(=O)(=O)NC(Cc2c(C)n(Cc3ccc(OC)cc3)c3ccc(Cl)cc23)C(=O)O)cc1 (racemic)	190 nM	
CC#CCOc1ccc(S(=O)(=O)N[C@H](Cc2cn(CC3CCC3)c3ccccc23)C(=O)O)cc1	1710 nM	
CC#CCOc1ccc(S(=O)(=O)NC(Cc2c(C)n(Cc3ccccc3)c3ccc(OC)cc23)C(=O)O)cc1 (racemic)	250 nM	
CC#CCOc1ccc(S(=O)(=O)NC(Cc2c[nH]c3ccc(OC)cc23)C(=O)O)cc1 (single isomer, unassigned; enantiomer 1)	10100 nM	
CC#CCOc1ccc(S(=O)(=O)N[C@H](Cc2c[nH]c3ccc(C)cc23)C(=O)O)cc1		IC50 [2]: 270 nM; IC50 [3]: 1.81 µM; IC50 [4]: 6.82 µM; IC50 [5]: 7.8 µM; IC50 [6]: > 50 µM
CC#CCOc1ccc(S(=O)(=O)NC(Cc2c[nH]c3ccc(OCc4ccccc4)cc23)C(=O)O)cc1 (single isomer, unassigned; enantiomer 2)	370 nM	IC50 [2]: 3270 nM; IC50 [3]: 4.44 µM; IC50 [4]: 19.7 µM; IC50 [6]: > 50 µM
CC#CCOc1ccc(S(=O)(=O)NC(Cc2c(C)n(Cc3ccc(Cl)cc3)c3ccc(OC)cc23)C(=O)O)cc1 (racemic)	290 nM	
CC#CCOc1ccc(S(=O)(=O)NC(Cc2cn(Cc3ccc(OC)cc3)c3ccc(C)cc23)C(=O)O)cc1 (racemic)	890 nM	
CC#CCOc1ccc(S(=O)(=O)NC(Cc2c(C)n(Cc3ccccc3F)c3ccc(OC)cc23)C(=O)O)cc1 (racemic)	300 nM	
CC#CCOc1ccc(S(=O)(=O)N[C@H](Cc2cn(C)c3ccccc23)C(=O)O)cc1	1430 nM	
